Test results: patent US20220177446A1, “ALKYNE COMPOUNDS AS IRAK INHIBITORS, PREPARATION METHODS AND MEDICINAL USES THEREOF” (Eternity Bioscience Inc., priority 2020, published 2022)
Like-named read-outs stand apart in the source and are kept apart here.

Columns and labels:
[1] = target: T1, full length human IRAK4 protein (Homo sapiens, UniProt Q9NWZ3); assay: IRAK4 Biochemical Assay (Promega ADP-Glo IRAK4 Kinase Enzyme System); conditions: 3 nM enzyme, 250 μM ATP; for IC50: 2 μM MBP, 60 min at room temperature; for IRAK4 Biochemical Assay Max Inhibition (%): maximum inhibition
T1 construct: Purified full length human IRAK4 protein; purchased Signal Chem I12-10G-125
T1 sequence (Q9NWZ3 1-460): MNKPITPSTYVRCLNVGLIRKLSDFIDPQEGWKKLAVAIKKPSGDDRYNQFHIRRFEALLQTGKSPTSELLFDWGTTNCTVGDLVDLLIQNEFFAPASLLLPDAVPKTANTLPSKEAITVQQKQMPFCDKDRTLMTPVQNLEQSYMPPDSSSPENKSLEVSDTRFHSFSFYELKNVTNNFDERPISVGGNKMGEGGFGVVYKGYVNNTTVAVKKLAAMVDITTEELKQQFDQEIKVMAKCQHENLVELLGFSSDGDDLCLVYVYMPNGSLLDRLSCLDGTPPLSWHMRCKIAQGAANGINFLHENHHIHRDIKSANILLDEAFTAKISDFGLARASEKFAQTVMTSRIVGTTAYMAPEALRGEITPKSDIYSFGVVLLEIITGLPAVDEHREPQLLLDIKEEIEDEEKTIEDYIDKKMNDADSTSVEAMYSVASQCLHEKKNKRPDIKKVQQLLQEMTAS
Experimental: For the routine compound screening, an IRAK4 kinase assay was performed as follows using Promega ADP-Glo IRAK4 Kinase Enzyme System (Promega, Cat #2198-AD). Purified full length human IRAK4 protein (Signal Chem; Cat #I12-10G-125) was diluted to a concentration 6 nM in assay buffer (25 mM MOPS, pH 7.2, 12.5 mM β-glycerol-phosphate, 25 mM MgCl2, 5 mM EGTA, 2 mM EDTA, 0.0025% Brij-35, add 0.25 mM DTT to Kinase Assay Buffer prior to use) containing IRAK4 inhibitor at 2× the final concentration in 0.4% DMSO. The reaction was performed in PerkinElmer Proxiplate-384 plus white plate (Fisher Scientific, Cat #50-905-2761) and started by the addition of an equal volume of the assay buffer containing 4 μM native swine myelin basic protein (MBP) and 500 μM ATP to achieve a final concentration of 3 nM enzyme, 2 μM MBP, 250 μM ATP, 1× compound, and 0.2% DMSO. The kinase reaction was allowed to run for 60 min at room temperature (25-27° C.), then 5 μL of ADP-Glo was added to the reaction in each well followed by 40 minutes-incubation at RT. To detect converted […], 10 μL Detection Buffer was added into each well and Incubate at RT in dark for 30 minutes. Finally, luminescence was read using Tecan with 1000 ms of integration time. The luminescent signal positively correlates with ADP amount and kinase activity. Data was analyzed by GraphPad Prism and IC50 was calculated using function log(inhibitor) vs. response—Variable slope (four parameters). Percentage of inhibition was calculated as below:
(§1) % inhibition=(1−(Reading(Sample)−Reading(Negative Control))/(Reading(Positive Control)−Reading(Negative Control)))×100%
The 0% inhibition value comes from the Reading of Positive Control wells having 0 nM compound. The 100% inhibition value comes from the Reading of Negative Control wells having no IRAK4 kinase.

IRAK4 = target: T2, IRAK4 (Homo sapiens, UniProt Q9NWZ3); assay: IRAK4 Human PBMC TNFα Cell Based Assay (AlphaLISA); conditions: TNFα measured
T2 construct: host or cells: human peripheral blood mononuclear cells (PBMCs)
T2 sequence (Q9NWZ3 1-460): T1 sequence (Q9NWZ3 1-460)
Experimental: In this assay, serially diluted compounds were incubated with 1×10^4 human peripheral blood mononuclear cells (PBMCs) from STEMCELL (Cat #70025.1) per well of 384-well plate (Fisher Scientific; 50-905-2761) and cultured with TexMACS medium (Miltenyi, Cat #130-097-196), stimulated by R848 (0.5 μM) or IL-1β (10 ng/ml). Plates were covered with lids and incubated for 4 h (R848, Fisher Scientific, Cat #NC9801605) or 24 h (IL-1β, Fisher Scientific, Cat #ENRIL1BI) at 37° C. in a humidified tissue-culture incubator. After a brief centrifugation at 1000 rpm for 5 minutes, 5 μl of culture medium was used for the measurement of the TNFα amount using TNFα (human) AlphaLISA Detection Kit (PerkinElmer, Cat #AL208C) according to manufacturer's protocol. A biotinylated anti-TNFα antibody binds to the Streptavidin-coated Donor beads while another anti-TNFα antibody is conjugated to AlphaLISA Acceptor beads. In the presence of the TNFα, the beads come into close proximity. The excitation of the Donor beads causes the release of singlet oxygen molecules that triggers a cascade of energy transfer in the Acceptor beads, resulting in a sharp peak of light emission at 615 nm. AlphaLISA assay plates were read using PHERAstar. Percentage of inhibition was calculated as below:
as §1
The 0% inhibition value comes from the Reading of Positive Control wells having 0 nM compound. The 100% inhibition value comes from the Reading of Negative Control wells having no R848 or IL-1β.

[2] = human PBMCs stimulated by IL-1β (10 ng/ml), 24 h, read-out: IRAK4 PBMC AlphaLISA IL-1β (IC50)
[3] = human PBMCs stimulated by R848 (0.5 μM), 4 h, read-out: IRAK4 PBMC AlphaLISA R848 (IC50)

Which results are given for `CC[C@@H]1[C@H](F)C(=O)N[C@@H]1COc1ncc(C#Cc2ccccc2)c2cc(C(N)=O)c(OC)cc12` [Example 27, 1-(((2S,3S,4S)-3-ethyl-4-fluoro-5-oxopyrrolidin-2-yl)methoxy)-7-methoxy-4-(phenylethynyl)isoquinoline-6-carboxamide]?
IC50 [1]: 24 nM; IRAK4 Biochemical Assay Max Inhibition (%) [1]: 100.0%; IC50 (IRAK4; [2]): 1.8 nM; IC50 (IRAK4; [3]): 5.3 nM

Which IC50 [1] does the source give for `CC[C@@H]1[C@H](F)C(=O)N[C@@H]1COc1ncc(C#Cc2cnn(C)c2)c2cc(C(N)=O)c(OC)cc12` [Example 17, 1-(((2S,3S,4S)-3-ethyl-4-fluoro-5-oxopyrrolidin-2-yl)methoxy)-7-methoxy-4-((1-methyl-1H-pyrazol-4-yl)ethynyl)isoquinoline-6-carboxamide] here?
The IC50 was 32 nM.

What about the “IRAK4 Biochemical Assay Max Inhibition (%)” value [1] of the same compound?
The value was 100.0%.

And the IC50 (IRAK4; [2])?
The IC50 was 1.5 nM.

What about the IC50 (IRAK4; [3]) of the same compound?
The IC50 was 2.4 nM.

What does the source list for `CC[C@@H]1[C@H](F)C(=O)N[C@@H]1COc1ncc(C#CCOC)c2cc(C(N)=O)c(OC(C)C)cc12` [Example 25, 1-(((2S,3S,4S)-3-ethyl-4-fluoro-5-oxopyrrolidin-2-yl)methoxy)-7-isopropoxy-4-(3-methoxyprop-1-yn-1-yl)isoquinoline-6-carboxamide]?
IC50 [1]: 27 nM; IRAK4 Biochemical Assay Max Inhibition (%) [1]: 103.0%; IC50 (IRAK4; [2]): 3.9 nM; IC50 (IRAK4; [3]): 5 nM

Which results are given for `CC[C@@H]1[C@H](F)C(=O)N[C@@H]1COc1ncc(C#CC(C)(C)N(C)C)c2cc(C(N)=O)c(OC)cc12` [Example 34, 4-(3-(dimethylamino)-3-methylbut-1-yn-1-yl)-1-(((2S,3S,4S)-3-ethyl-4-fluoro-5-oxopyrrolidin-2-yl)methoxy)-7-methoxyisoquinoline-6-carboxamide]?
IC50 [1]: 8.9 nM; IRAK4 Biochemical Assay Max Inhibition (%) [1]: 92.0%; IC50 (IRAK4; [2]): 46 nM; IC50 (IRAK4; [3]): 32 nM

`CC[C@@H]1[C@H](F)C(=O)N[C@@H]1COc1ncc(C#CC(C)(C)C)c2cc(C(N)=O)c(OC)cc12` [Example 32, 4-(3,3-dimethylbut-1-yn-1-yl)-1-(((2S,3S,4S)-3-ethyl-4-fluoro-5-oxopyrrolidin-2-yl)methoxy)-7-methoxyisoquinoline-6-carboxamide] was tested. Which IC50 [1] did it give?
Its IC50 is 45 nM.

And the “IRAK4 Biochemical Assay Max Inhibition (%)” value [1]?
The value was 99.0%.

What about the IC50 (IRAK4; [2]) of the same compound?
Its IC50 is 17 nM.

What about the IC50 (IRAK4; [3]) of the same compound?
Its IC50 is 11 nM.

For `CC[C@@H]1[C@H](F)C(=O)N[C@@H]1COc1ccc(C#CC(C)(C)N(C)C)c2cc(C(N)=O)c(OC)cc12` [Example 33, 8-(3-(dimethylamino)-3-methylbut-1-yn-1-yl)-5-(((2S,3S,4S)-3-ethyl-4-fluoro-5-oxopyrrolidin-2-yl)methoxy)-3-methoxy-2-naphthamide], which IC50 [1] is on record?
Its IC50 is 13 nM.

What about the “IRAK4 Biochemical Assay Max Inhibition (%)” value [1] of the same compound?
Its value is 99.0%.

What about the IC50 (IRAK4; [2]) of the same compound?
The IC50 was 41 nM.

And the IC50 (IRAK4; [3])?
The IC50 was 25 nM.

What does the source list for `CC[C@@H]1[C@H](F)C(=O)N[C@@H]1COc1ccc(C#CC(C)(C)O)c2cc(C(N)=O)c(OC)cc12` [Example 31, 5-(((2S,3S,4S)-3-ethyl-4-fluoro-5-oxopyrrolidin-2-yl)methoxy)-8-(3-hydroxyl-3-methylbut-1-yn-1-yl)-3-methoxy-2-naphthamide]?
IC50 [1]: 32 nM; IRAK4 Biochemical Assay Max Inhibition (%) [1]: 95.0%; IC50 (IRAK4; [2]): 5.6 nM; IC50 (IRAK4; [3]): 8.3 nM

`CC[C@@H]1[C@H](F)C(=O)N[C@@H]1COc1ncc(C#CC(C)(C)N(C)C)c2cc(C(N)=O)c(OC(C)C)cc12` [Example 35, 4-(3-(dimethylamino)-3-methylbut-1-yn-1-yl)-1-(((2S,3S,4S)-3-ethyl-4-fluoro-5-oxopyrrolidin-2-yl)methoxy)-7-isopropoxyisoquinoline-6-carboxamide] was tested. Which IC50 [1] did it give?
The IC50 was 39 nM.

And the “IRAK4 Biochemical Assay Max Inhibition (%)” value [1]?
The value was 93.0%.

And the IC50 (IRAK4; [2])?
The IC50 was 110 nM.

And the IC50 (IRAK4; [3])?
Its IC50 is 36 nM.

With `CC[C@@H]1[C@H](F)C(=O)N[C@@H]1COc1ncc(C#C[C@@H](C)O)c2cc(C(N)=O)c(OC)cc12` [Example 19, 1-(((2S,3S,4S)-3-ethyl-4-fluoro-5-oxopyrrolidin-2-yl)methoxy)-4-((R)-3-hydroxybut-1-yn-1-yl)-7-methoxyisoquinoline-6-carboxamide] as the compound, how does the IC50 [1] read?
The IC50 was 13 nM.

What about the “IRAK4 Biochemical Assay Max Inhibition (%)” value [1] of the same compound?
The value was 100.0%.

What about the IC50 (IRAK4; [2]) of the same compound?
The IC50 was 1.3 nM.

What about the IC50 (IRAK4; [3]) of the same compound?
The IC50 was 3 nM.

With `CC[C@@H]1[C@H](F)C(=O)N[C@@H]1COc1ncc(C#C[C@H](C)O)c2cc(C(N)=O)c(OC)cc12` [Example 18, 1-(((2S,3S,4S)-3-ethyl-4-fluoro-5-oxopyrrolidin-2-yl)methoxy)-4-((S)-3-hydroxybut-1-yn-1-yl)-7-methoxyisoquinoline-6-carboxamide] as the compound, how does the IC50 [1] read?
The IC50 was 27.5 nM.

And the “IRAK4 Biochemical Assay Max Inhibition (%)” value [1]?
Its value is 95.0%.

And the IC50 (IRAK4; [2])?
Its IC50 is 1.7 nM.

And the IC50 (IRAK4; [3])?
Its IC50 is 2.5 nM.

With `CC[C@@H]1[C@H](F)C(=O)N[C@@H]1COc1ncc(C#CC(C)(C)OC)c2cc(C(N)=O)c(OC)cc12` [Example 28, 1-(((2S,3S,4S)-3-ethyl-4-fluoro-5-oxopyrrolidin-2-yl)methoxy)-7-methoxy-4-(3-methoxy-3-methylbut-1-yn-1-yl)isoquinoline-6-carboxamide] as the compound, how does the IC50 [1] read?
The IC50 was 37 nM.

And the “IRAK4 Biochemical Assay Max Inhibition (%)” value [1]?
The value was 100.0%.

What about the IC50 (IRAK4; [2]) of the same compound?
The IC50 was 9.2 nM.

What about the IC50 (IRAK4; [3]) of the same compound?
The IC50 was 5.5 nM.

`COCC#Cc1cnc(OC[C@@H]2CCC(=O)N2)c2cc(OC)c(C(N)=O)cc12` [Example 9, (S)-7-methoxy-4-(3-methoxyprop-1-yn-1-yl)-1-((5-oxopyrrolidin-2-yl)methoxy)isoquinoline-6-carboxamide] was tested. Which IC50 [1] did it give?
The IC50 was 14 nM.

And the “IRAK4 Biochemical Assay Max Inhibition (%)” value [1]?
Its value is 100.0%.

What about the IC50 (IRAK4; [2]) of the same compound?
Its IC50 is 110 nM.

And the IC50 (IRAK4; [3])?
Its IC50 is 140 nM.

How did the IC50 [1] turn out when `CC[C@@H]1[C@H](F)C(=O)N[C@@H]1COc1ncc(C#Cc2cccnc2)c2cc(C(N)=O)c(OC)cc12` [Example 14, 1-(((2S,3S,4S)-3-ethyl-4-fluoro-5-oxopyrrolidin-2-yl)methoxy)-7-methoxy-4-(pyridin-3-ylethynyl)isoquinoline-6-carboxamide] was run?
The IC50 was 29 nM.

And the “IRAK4 Biochemical Assay Max Inhibition (%)” value [1]?
Its value is 100.0%.

And the IC50 (IRAK4; [2])?
The IC50 was 1.3 nM.

What about the IC50 (IRAK4; [3]) of the same compound?
Its IC50 is 1.6 nM.

Which results are given for `CC[C@@H]1[C@H](F)C(=O)N[C@@H]1COc1ncc(C#CC(=O)N(C)C)c2cc(C(N)=O)c(OC)cc12` [Example 11, 4-(3-(dimethylamino)-3-oxoprop-1-yn-1-yl)-1-(((2S,3S,4S)-3-ethyl-4-fluoro-5-oxopyrrolidin-2-yl)methoxy)-7-methoxyisoquinoline-6-carboxamide]?
IC50 [1]: 10 nM; IRAK4 Biochemical Assay Max Inhibition (%) [1]: 95.0%; IC50 (IRAK4; [2]): 1 nM; IC50 (IRAK4; [3]): 0.7 nM
